# Laboratory results reported in patent publication US7767659B2, “Synthesis of naturally occurring ecteinascidins and related compounds” (Pharma Mar, S.A., priority 2002, dated 2010).
# Where two headings read alike, the source gives them in different places.
# Key:
# A-549 = experiment: cells; conditions: for GI50: read-out: GI50 A549; for CC50: read-out: LC50 A549
# Procedure, shortened: (§1)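 Colorimetric SRB read (490 nm) on triplicate wells after 48 h at 37 °C, 5% CO2. Dose range 10 to 10^−8 μg/ml; 5×10^3 cells/well pre-attached 18 h.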
# HT-29 = experiment: cells; conditions: for GI50: read-out: GI50 HT29; for CC50: read-out: LC50 HT29
# Procedure, shortened: as §1
# LoVo = experiment: cells; conditions: for GI50: read-out: GI50 LOVO; for CC50: read-out: LC50 LOVO
# Procedure, shortened: as §1
# DU-145 = experiment: Inhibition of cells growth by colorimetric assay (SRB); conditions: for GI50: read-out: GI50 DU145; for CC50: read-out: LC50 DU145
# Procedure, shortened: as §1
# HeLa-APL = experiment: as above; conditions: for GI50: read-out: GI50 HELA-APL; for CC50: read-out: LC50 HELA-APL
# Procedure, shortened: as §1
# HeLa = experiment: as above; conditions: for GI50: read-out: GI50 HELA; for CC50: read-out: LC50 HELA
# Procedure, shortened: as §1
# IGROV-1 = experiment: as above; conditions: for GI50: read-out: GI50 IGROV; for CC50: read-out: LC50 IGROV
# Procedure, shortened: as §1
# IGROV-ET = experiment: as above; conditions: for GI50: read-out: GI50 IGROV-ET; for CC50: read-out: LC50 IGROV-ET
# Procedure, shortened: as §1
# K-562 = experiment: as above; conditions: for GI50: read-out: GI50 K562; for CC50: read-out: LC50 K562
# Procedure, shortened: as §1
# LNCaP = experiment: as above; conditions: for GI50: read-out: GI50 LNCAP; for CC50: read-out: LC50 LNCAP
# Procedure, shortened: as §1
# LoVo-Dox = experiment: as above; conditions: for GI50: read-out: GI50 LOVO-DOX; for CC50: read-out: LC50 LOVO-DOX
# Procedure, shortened: as §1
# PANC-1 = experiment: as above; conditions: for GI50: read-out: GI50 PANC-1; for CC50: read-out: LC50 PANC-1
# Procedure, shortened: as §1
# SK-BR-3 = experiment: as above; conditions: for GI50: read-out: GI50 SK-BR3; for CC50: read-out: LC50 SK-BR3
# Procedure, shortened: as §1
# SK-MEL-28 = experiment: as above; conditions: for GI50: read-out: GI50 MEL-28; for CC50: read-out: LC50 MEL-28
# Procedure, shortened: as §1
# [1] = HELA-APL, SRB, 48 hours exposure
# [2] = IGROV-ET, SRB, 48 hours exposure
# [3] = LOVO-DOX, SRB, 48 hours exposure
structure (smiles),measurement,setting,value
CCCCCCCCCCCCCCCC(=O)NC1CS[C@@H]2c3c(OC(C)=O)c(C)c4c(c3[C@H](COC1=O)N1C2[C@@H]2N[C@@H](Cc3cc(C)c(OC)c(O)c32)[C@@H]1C#N)OCO4 (stereo partly drawn) [compound 32],GI50,"A-549; Homo sapiens, A549, 48 h",2380 nM
same,CC50,"A-549; Homo sapiens, A549, 48 h",7700 nM
same,IC (TGI),"A-549; Homo sapiens, A549, 48 h, read-out: TGI A549",4290 nM
same,GI50,"HT-29; Homo sapiens, HT-29, 48 h",3480 nM
same,CC50,"HT-29; Homo sapiens, HT-29, 48 h",10700 nM
same,IC (TGI),"HT-29; Homo sapiens, HT-29, 48 h, read-out: TGI HT29",6100 nM
same,GI50,"LoVo; Homo sapiens, LoVo, 48 h",1890 nM
same,CC50,"LoVo; Homo sapiens, LoVo, 48 h",7390 nM
same,IC (TGI),"LoVo; Homo sapiens, LoVo, 48 h, read-out: TGI LOVO",3760 nM
same,GI50,"DU-145; Homo sapiens, DU-145, 48 h",2480 nM
same,CC50,"DU-145; Homo sapiens, DU-145, 48 h",9390 nM
same,IC (TGI),"DU-145; Homo sapiens, DU-145, 48 h, read-out: TGI DU145",4830 nM
same,GI50,"HeLa-APL; Homo sapiens, 48 h",33.9 nM
same,CC50,"HeLa-APL; Homo sapiens, 48 h",108 nM
same,IC (TGI),"HeLa-APL; Homo sapiens, 48 h, read-out: TGI HELA-APL",60.5 nM
same,GI50,"HeLa; Homo sapiens, HeLa, 48 h",253 nM
same,CC50,"HeLa; Homo sapiens, HeLa, 48 h",689 nM
same,IC (TGI),"HeLa; Homo sapiens, HeLa, 48 h, read-out: TGI HELA",418 nM
same,GI50,"IGROV-1; Homo sapiens, IGROV-1, 48 h",1970 nM
same,CC50,"IGROV-1; Homo sapiens, IGROV-1, 48 h",7740 nM
same,IC (TGI),"IGROV-1; Homo sapiens, IGROV-1, 48 h, read-out: TGI IGROV",3910 nM
same,GI50,"IGROV-ET; Homo sapiens, 48 h",2850 nM
same,CC50,"IGROV-ET; Homo sapiens, 48 h",9670 nM
same,IC (TGI),"IGROV-ET; Homo sapiens, 48 h, read-out: TGI IGROV-ET",5240 nM
same,GI50,"K-562; Homo sapiens, K562, 48 h",694 nM
same,CC50,"K-562; Homo sapiens, K562, 48 h",6810 nM
same,IC (TGI),"K-562; Homo sapiens, K562, 48 h, read-out: TGI K562",2200 nM
same,GI50,"LNCaP; Homo sapiens, LNCaP, 48 h",1770 nM
same,CC50,"LNCaP; Homo sapiens, LNCaP, 48 h",6410 nM
same,IC (TGI),"LNCaP; Homo sapiens, LNCaP, 48 h, read-out: TGI LNCAP",3360 nM
same,GI50,"LoVo-Dox; Homo sapiens, 48 h",802 nM
same,CC50,"LoVo-Dox; Homo sapiens, 48 h",6760 nM
same,IC (TGI),"LoVo-Dox; Homo sapiens, 48 h, read-out: TGI LOVO-DOX",2480 nM
same,GI50,"PANC-1; Homo sapiens, PANC-1, 48 h",2560 nM
same,CC50,"PANC-1; Homo sapiens, PANC-1, 48 h",8790 nM
same,IC (TGI),"PANC-1; Homo sapiens, PANC-1, 48 h, read-out: TGI PANC-1",4750 nM
same,GI50,"SK-BR-3; Homo sapiens, SK-BR-3, 48 h",263 nM
same,CC50,"SK-BR-3; Homo sapiens, SK-BR-3, 48 h",7520 nM
same,IC (TGI),"SK-BR-3; Homo sapiens, SK-BR-3, 48 h, read-out: TGI SK-BR3",1660 nM
same,GI50,"SK-MEL-28; Homo sapiens, SK-MEL-28, 48 h",2410 nM
same,CC50,"SK-MEL-28; Homo sapiens, SK-MEL-28, 48 h",7130 nM
same,IC (TGI),"SK-MEL-28; Homo sapiens, SK-MEL-28, 48 h, read-out: TGI MEL-28",4140 nM
C=CCN1C2Cc3cc(C)c(OC)c(O)c3C1C1C3SCC(NC(=O)CC)C(=O)OCC(c4c5c(c(C)c(OC(C)=O)c43)OCO5)N1C2C#N (stereo not drawn) [compound 27],TGI A549,"A-549; A549, SRB, 48 hours exposure",2.06E−07 Molar
same,GI50,"A-549; A549, SRB, 48 hours exposure",62.6 nM
same,CC50,"A-549; A549, SRB, 48 hours exposure",1890 nM
same,TGI HT29,"HT-29; HT29, SRB, 48 hours exposure",1.42E−06 Molar
same,GI50,"HT-29; HT29, SRB, 48 hours exposure",75.6 nM
same,CC50,"HT-29; HT29, SRB, 48 hours exposure",14200 nM
same,TGI LOVO,"LoVo; LOVO, SRB, 48 hours exposure",2.36E−07 Molar
same,GI50,"LoVo; LOVO, SRB, 48 hours exposure",80.4 nM
same,CC50,"LoVo; LOVO, SRB, 48 hours exposure",707 nM
same,TGI DU145,"DU-145; DU145, SRB, 48 hours exposure",8.48E−07 Molar
same,GI50,"DU-145; DU145, SRB, 48 hours exposure",75.5 nM
same,CC50,"DU-145; DU145, SRB, 48 hours exposure",14200 nM
same,TGI HELA-APL,HeLa-APL; [1],3.04E−07 Molar
same,GI50,HeLa-APL; [1],95.1 nM
same,CC50,HeLa-APL; [1],951 nM
same,TGI HELA,"HeLa; HELA, SRB, 48 hours exposure",2.75E−07 Molar
same,GI50,"HeLa; HELA, SRB, 48 hours exposure",97.8 nM
same,CC50,"HeLa; HELA, SRB, 48 hours exposure",786 nM
same,TGI IGROV,"IGROV-1; IGROV, SRB, 48 hours exposure",1.02E−07 Molar
same,GI50,"IGROV-1; IGROV, SRB, 48 hours exposure",40.7 nM
same,CC50,"IGROV-1; IGROV, SRB, 48 hours exposure",1020 nM
same,TGI IGROV-ET,IGROV-ET; [2],3.87E−07 Molar
same,GI50,IGROV-ET; [2],165 nM
same,CC50,IGROV-ET; [2],915 nM
same,TGI K562,"K-562; K562, SRB, 48 hours exposure",5.66E−08 Molar
same,GI50,"K-562; K562, SRB, 48 hours exposure",21.7 nM
same,CC50,"K-562; K562, SRB, 48 hours exposure",206 nM
same,TGI LNCAP,"LNCaP; LNCAP, SRB, 48 hours exposure",6.46E−08 Molar
same,GI50,"LNCaP; LNCAP, SRB, 48 hours exposure",26.1 nM
same,CC50,"LNCaP; LNCAP, SRB, 48 hours exposure",261 nM
same,TGI LOVO-DOX,LoVo-Dox; [3],1.42E−05 Molar
same,GI50,LoVo-Dox; [3],431 nM
same,CC50,LoVo-Dox; [3],14200 nM
same,TGI PANC-1,"PANC-1; PANC-1, SRB, 48 hours exposure",1.45E−06 Molar
same,GI50,"PANC-1; PANC-1, SRB, 48 hours exposure",92.8 nM
same,CC50,"PANC-1; PANC-1, SRB, 48 hours exposure",14200 nM
same,TGI SK-BR3,"SK-BR-3; SK-BR3, SRB, 48 hours exposure",1.97E−07 Molar
same,GI50,"SK-BR-3; SK-BR3, SRB, 48 hours exposure",55.8 nM
same,CC50,"SK-BR-3; SK-BR3, SRB, 48 hours exposure",1050 nM
same,TGI MEL-28,"SK-MEL-28; MEL-28, SRB, 48 hours exposure",1.34E−07 Molar
same,GI50,"SK-MEL-28; MEL-28, SRB, 48 hours exposure",61.4 nM
same,CC50,"SK-MEL-28; MEL-28, SRB, 48 hours exposure",594 nM
